Measurements from US20250154169A1, “COMPOUNDS AND METHODS FOR MODULATING SPLICING” (REMIX THERAPEUTICS INC., priority 2021, published 2025).
Read-outs that look alike come from different tables or passages of the source.

How the values were obtained:
Assay type in all cases: cell-based, human
HTT mRNA [1] = experiment: Splicing RT-qPCR assay, HTT canonical (CJ) and alternative (AJ) junction mRNA; conditions: Homo sapiens, A673 or K562 cells, 24 hours compound treatment; for IC50: 24 h, read-out: HTT CJ (IC50, decrease in canonical junction mRNA); for AC50: read-out: HTT AJ (AC50, increase in alternative junction mRNA)
Summary of the method: (§1)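 One-step RT-qPCR on cell lysates, CJ and AJ isoforms quantified; housekeeping normalization GAPDH/GUSB (K562) or PPIA (A673). Cells: A673 in DMEM/10% FBS or K562 in IMDM/10% FBS. Compounds 11-pt 3-fold, top 10 uM, 24 h, 37 °C, 5% CO2.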

MYB mRNA = experiment: Splicing RT-qPCR assay, MYB canonical (CJ) and alternative (AJ) junction mRNA; conditions: Homo sapiens; for AC50: read-out: MYB AJ (AC50, increase in alternative junction mRNA)
Summary of the method: as §1

SMN2 mRNA = experiment: Splicing RT-qPCR gene panel, SMN2 canonical junction (CJ) mRNA; conditions: Homo sapiens, Tables 4A/4B, read-out: SMN2 (IC50, decrease in CJ mRNA, gene panel)
Summary of the method: (§2)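 A673 or K562 cells treated 24 h at 37° C. with an 11-point 3-fold dilution series (top 10 uM, ≤0.25% DMSO). Lysates analysed by one-step RT-qPCR for canonical exon-exon junction transcripts, normalized to GAPDH, GUSB or PPIA and DMSO control (2^(−ΔΔCt)), then converted to percentage response.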

Target C mRNA = experiment: Splicing RT-qPCR gene panel, Target C canonical junction (CJ) mRNA; conditions: Homo sapiens, Tables 4A/4B, read-out: Target C (IC50, decrease in CJ mRNA, gene panel)
Summary of the method: as §2

HTT mRNA [2] = experiment: Splicing RT-qPCR gene panel, HTT canonical junction (CJ) mRNA; conditions: Homo sapiens, Tables 4A/4B, read-out: HTT (IC50, decrease in CJ mRNA, gene panel)
Summary of the method: as §2

[3] = 24 h, A673 or K562 cells, 24 hours compound treatment, RT-qPCR
[4] = 24 h, A673 or K562 cells, 24 hours compound treatment, RT-qPCR, read-out: MYB CJ (IC50, decrease in canonical junction mRNA)
[5] = Tables 4A/4B, canonical junction qPCR panel, read-out: MYB (IC50, decrease in CJ mRNA, gene panel)

| IC50 (HTT mRNA [1]) | IC50 (MYB mRNA; [4]) | IC50 (MYB mRNA; [5]) | IC50 (SMN2 mRNA) | IC50 (Target C mRNA) | IC50 (HTT mRNA [2]) | Compound | AC50 (HTT mRNA [1]) | AC50 (MYB mRNA; [3]) |
| --- | --- | --- | --- | --- | --- | --- | --- | --- |
| > 10 µM | < 100 nM | < 100 nM | < 100 nM | > 10 µM | > 10 µM | CCn1cc2c(N3CCC(NC)C3)ccc(C(=O)Nc3cc(F)c4nc(C)cn4c3)c2n1 (stereo not shown) [Compound 374, 2-ethyl-N-{8-fluoro-2-methylimidazo[1,2-a]pyridin-6-yl}-4-[3-(methylamino)pyrrolidin-1-yl]indazole-7-carboxamide] | > 10 µM | < 100 nM |
| 0.1 to 1 µM | 100 to 1000 nM | 100 to 1000 nM | < 100 nM | 0.1 to 1 µM | 0.1 to 1 µM | CCn1cc2c(N3CCC(N(C)C)C3)ccc(C(=O)Nc3cc(F)c4nc(C)cn4c3)c2n1 (stereo not shown) [Compound 375, 4-[3-(dimethylamino)pyrrolidin-1-yl]-2-ethyl-N-{8-fluoro-2-methylimidazo[1,2-a]pyridin-6-yl}indazole-7-carboxamide] | 0.1 to 1 µM | 100 to 1000 nM |
| 1 to 10 µM | 100 to 1000 nM | < 100 nM | < 100 nM | 1 to 10 µM | 1 to 10 µM | CCn1cc2c(N3C[C@@H](C)N[C@@H](C)C3)ccc(C(=O)Nc3cc(F)c4nc(C)cn4c3)c2n1 [Compound 377, 4-[(3R,5S)-3,5-dimethylpiperazin-1-yl]-2-ethyl-N-{8-fluoro-2-methylimidazo[1,2-a]pyridin-6-yl}indazole-7-carboxamide] | 1 to 10 µM | 100 to 1000 nM |
| 1 to 10 µM | 100 to 1000 nM | < 100 nM | < 100 nM | > 10 µM | 1 to 10 µM | CCn1cc2c(N3CCN(C)CC3)ccc(C(=O)Nc3cc(F)c4nc(C)cn4c3)c2n1 [Compound 378, 2-ethyl-N-{8-fluoro-2-methylimidazo[1,2-a]pyridin-6-yl}-4-(4-methylpiperazin-1-yl) indazole-7-carboxamide] | 1 to 10 µM | 100 to 1000 nM |
| 1 to 10 µM | < 100 nM | < 100 nM | < 100 nM | 1 to 10 µM | 1 to 10 µM | CCNC1CCN(c2ccc(C(=O)Nc3cc(F)c4nc(C)cn4c3)c3nn(CC)cc23)CC1 [Compound 380, 2-ethyl-4-[4-(ethylamino)piperidin-1-yl]-N-{8-fluoro-2-methylimidazo[1,2-a]pyridin-6-yl}indazole-7-carboxamide] | 1 to 10 µM | < 100 nM |
| > 10 µM | 100 to 1000 nM | 100 to 1000 nM | < 100 nM | > 10 µM | > 10 µM | CCn1cc2c(N3CC[C@@H](N(C)C)C3)ccc(C(=O)Nc3cc(F)c4nc(C)cn4c3)c2n1 [Compound 407, (R)-4-(3-(dimethylamino)pyrrolidin-1-yl)-2-ethyl-N-(8-fluoro-2-methylimidazo[1,2-a]pyridin-6-yl)-2H-indazole-7-carboxamide] | > 10 µM | 100 to 1000 nM |
| > 10 µM | 100 to 1000 nM | 100 to 1000 nM | < 100 nM | > 10 µM | > 10 µM | CCn1cc2c(N3CC[C@H](N(C)C)C3)ccc(C(=O)Nc3cc(F)c4nc(C)cn4c3)c2n1 [Compound 408, (S)-4-(3-(dimethylamino)pyrrolidin-1-yl)-2-ethyl-N-(8-fluoro-2-methylimidazo[1,2-a]pyridin-6-yl)-2H-indazole-7-carboxamide] | > 10 µM | 100 to 1000 nM |

The next lines start with the compound.

| Compound | IC50 (HTT mRNA [1]) | IC50 (MYB mRNA; [4]) | IC50 (MYB mRNA; [5]) | IC50 (SMN2 mRNA) | IC50 (Target C mRNA) | IC50 (HTT mRNA [2]) | AC50 (HTT mRNA [1]) | AC50 (MYB mRNA; [3]) |
| --- | --- | --- | --- | --- | --- | --- | --- | --- |
| Cc1cn2cc(NC(=O)c3ccc(N4CC[C@H](NC5CC5)C4)c4cn(C)nc34)cc(F)c2n1 [Compound 372, 4-[(3S)-3-(cyclopropylamino)pyrrolidin-1-yl]-N-{8-fluoro-2-methylimidazo[1,2-a]pyridin-6-yl}-2-methylindazole-7-carboxamide] | 1 to 10 µM | < 100 nM | < 100 nM | < 100 nM | > 10 µM | > 10 µM | 1 to 10 µM | < 100 nM |
| Cc1cn2cc(NC(=O)c3ccc(N4CCC(NC5(CF)CC5)C4)c4cn(C)nc34)cc(F)c2n1 (stereo not shown) [Compound 373, N-{8-fluoro-2-methylimidazo[1,2-a]pyridin-6-yl}-4-(3-{[1-(fluoromethyl)cyclopropyl]amino}pyrrolidin-1-yl)-2-methylindazole-7-carboxamide] | 1 to 10 µM | < 100 nM | < 100 nM | < 100 nM | > 10 µM | 1 to 10 µM | 1 to 10 µM | < 100 nM |
| CCn1cc2c(N3CCC(NC4CC4)CC3)ccc(C(=O)Nc3cc(F)c4nc(C)cn4c3)c2n1 [Compound 376, 4-[4-(cyclopropylamino)piperidin-1-yl]-2-ethyl-N-{8-fluoro-2-methylimidazo[1,2-a]pyridin-6-yl}indazole-7-carboxamide] | 0.1 to 1 µM | 100 to 1000 nM | < 100 nM | < 100 nM | > 10 µM | 1 to 10 µM | 1 to 10 µM | 100 to 1000 nM |
| CCn1cc2c(N3CCNC4(CC4)C3)ccc(C(=O)Nc3cc(F)c4nc(C)cn4c3)c2n1 [Compound 379, 4-{4,7-diazaspiro[2.5]octan-7-yl}-2-ethyl-N-{8-fluoro-2-methylimidazo[1,2-a]pyridin-6-yl}indazole-7-carboxamide] | 1 to 10 µM | 100 to 1000 nM | 100 to 1000 nM | < 100 nM | 1 to 10 µM | 1 to 10 µM | > 10 µM | 1000 to 10000 nM |
| Cc1cn2cc(NC(=O)c3ccc(N4CC[C@@H](N)C4)c4cn(C)nc34)cc(F)c2n1 [Compound 381, 4-[(3R)-3-aminopyrrolidin-1-yl]-N-{8-fluoro-2-methylimidazo[1,2-a]pyridin-6-yl}-2-methylindazole-7-carboxamide] | > 10 µM | < 100 nM | < 100 nM | < 100 nM | > 10 µM | > 10 µM | > 10 µM | < 100 nM |
| Cc1cn2cc(NC(=O)c3ccc(N4CC[C@H](N)C4)c4cn(C)nc34)cc(F)c2n1 [Compound 382, 4-[(3S)-3-aminopyrrolidin-1-yl]-N-{8-fluoro-2-methylimidazo[1,2-a]pyridin-6-yl}-2-methylindazole-7-carboxamide] | 1 to 10 µM | < 100 nM | < 100 nM | < 100 nM | > 10 µM | 1 to 10 µM | 1 to 10 µM | < 100 nM |
| Cc1cn2cc(NC(=O)c3ccc(N4CC5(N)CC4C5)c4cn(C)nc34)cc(F)c2n1 [Compound 383, 4-{4-amino-2-azabicyclo[2.1.1]hexan-2-yl}-N-{8-fluoro-2-methylimidazo[1,2-a]pyridin-6-yl}-2-methylindazole-7-carboxamide] | > 10 µM | < 100 nM | < 100 nM | < 100 nM | > 10 µM | > 10 µM | > 10 µM | 100 to 1000 nM |
| Cc1cn2cc(NC(=O)c3ccc(N4CCNCC4)c4cn(CC5(O)COC5)nc34)cc(F)c2n1 [Compound 384, N-{8-fluoro-2-methylimidazo[1,2-a]pyridin-6-yl}-2-[(3-hydroxyoxetan-3-yl)methyl]-4-(piperazin-1-yl) indazole-7-carboxamide] | > 10 µM | > 10000 nM | > 10000 nM | 100 to 1000 nM | > 10 µM | > 10 µM | > 10 µM | 1000 to 10000 nM |
| COCCOc1nc2c(C(=O)Nc3cc(F)c4nc(C)cn4c3)ccc(N3CCNCC3)c2o1 [Compound 385, N-{8-fluoro-2-methylimidazo[1,2-a]pyridin-6-yl}-2-(2-methoxyethoxy)-7-(piperazin-1-yl)-1,3-benzoxazole-4-carboxamide] | > 10 µM | > 10000 nM | > 10000 nM | > 10000 nM | > 10 µM | > 10 µM | > 10 µM | > 10000 nM |
| Cn1cc2c(N3CCNCC3)ccc(C(=O)Nc3cc(F)c4nc(CO)cn4c3)c2n1 [Compound 389, N-[8-fluoro-2-(hydroxymethyl)imidazo[1,2-a]pyridin-6-yl]-2-methyl-4-(piperazin-1-yl) indazole-7-carboxamide; trifluoroacetic acid] | > 10 µM | 100 to 1000 nM | 100 to 1000 nM | < 100 nM | > 10 µM | > 10 µM | > 10 µM | 1000 to 10000 nM |
